Counter-ions that a name gives are not always drawn.
| SMILES | melting point [°C] |
| --- | --- |
| Cc1c(C(=O)NN2CCCCC2)nc(-c2ccc(Cl)cc2Cl)n1-c1ccc(OS(=O)(=O)c2ccc(Cl)s2)cc1 (as salt: hydrochloride) [Example 5, 5-Chloro-thiophene-2-sulfonic acid 4-[2-(2,4-dichloro-phenyl)-5-methyl-4-(piperidin-1-ylcarbamoyl)-imidazol-1-yl]-phenyl ester] | 112 to 118 |
| Cc1c(C(=O)NN2CCCCC2)nc(-c2ccc(Cl)cc2Cl)n1-c1ccc(OS(=O)(=O)c2cccs2)cc1 (as salt: hydrochloride) [Example 7, Thiophene-2-sulfonic acid 4-[2-(2,4-dichloro-phenyl)-5-methyl-4-(piperidin-1-ylcarbamoyl)-imidazol-1-yl]phenyl ester] | 107 to 112 |
| Cc1c(C(=O)NN2CCCCC2)nc(-c2ccc(Cl)cc2Cl)n1-c1ccc(OS(=O)(=O)c2cccnc2)cc1 (as salt: hydrochloride) [Example 4, Pyridine-3-sulfonic acid 4-[2-(2,4-dichloro-phenyl)-5-methyl-4-(piperidin-1-ylcarbamoyl)-imidazol-1-yl]-phenyl ester] | 205 to 209 |
| Cc1c(C(=O)NN2CCCCC2)nc(-c2ccc(Cl)cc2Cl)n1-c1ccc(OS(=O)(=O)CCC(F)(F)F)cc1 (as salt: hydrochloride) [Example 8, 3,3,3-Trifluoro-propane-1-sulfonic acid 4-[2-(2,4-dichloro-phenyl)-5-methyl-4-(piperidin-1-ylcarbamoyl)-imidazol-1-yl]-phenyl ester] | 183 to 186 |
| Cc1c(C(=O)NN2CCCCC2)nc(-c2ccc(Cl)cc2Cl)n1-c1ccc(OCc2ccccc2)cc1 (as salt: hydrochloride) [Example 1, 1-(4-Benzyloxy-phenyl)-2-(2,4-dichloro-phenyl)-5-methyl-1H-imidazole-4-carboxylic acid piperidin-1-ylamide] | 195 to 198 |

Continued, values first:

| melting point [°C] | SMILES |
| --- | --- |
| 113 to 118 | Cc1c(C(=O)NN2CCCCC2)nc(-c2ccc(Cl)cc2Cl)n1-c1ccc(OS(=O)(=O)CCCC(F)(F)F)cc1 (as salt: hydrochloride) [Example 3, 4,4,4-Trifluoro-butane-1-sulfonic acid 4-[2-(2,4-dichloro-phenyl)-5-methyl-4-(piperidin-1-ylcarbamoyl)-imidazol-1-yl]-phenyl ester] |
| 94 to 101 | CCS(=O)(=O)Oc1ccc(-n2c(-c3ccc(Cl)cc3Cl)nc(C(=O)NN3CCCCC3)c2C)cc1 (as salt: hydrochloride) [Example 2, Ethanesulfonic acid 4-[2-(2,4-dichloro-phenyl)-5-methyl-4-(piperidin-1-ylcarbamoyl)-imidazol-1-yl]-phenyl ester] |
| 126 to 133 | CCCS(=O)(=O)Oc1ccc(-n2c(-c3ccc(Cl)cc3Cl)nc(C(=O)NN3CCCCC3)c2C)cc1 (as salt: hydrochloride) [Example 9, Propane-1-sulfonic acid 4-[2-(2,4-dichloro-phenyl)-5-methyl-4-(piperidin-1-ylcarbamoyl)-imidazol-1-yl]-phenyl ester] |
| 152 to 156 | Cc1c(C(=O)NN2CCCCC2)nc(-c2ccc(Cl)cc2Cl)n1-c1ccc(OS(=O)(=O)CCC(C)(C)C)cc1 (as salt: hydrochloride) [Example 6, 3,3-Dimethyl-butane-1-sulfonic acid 4-[2-(2,4-dichloro-phenyl)-5-methyl-4-(piperidin-1-ylcarbamoyl)-imidazol-1-yl]-phenyl ester] |

— patent publication US20090005415A1, “1,2-Diarylimidazoles for Use as Cb1 Modulators” (priority 2005, published 2009)
